# Source: patent US20240262795A1, “PYRAZINE COMPOUNDS AS INHIBITORS OF FLT3” (Biomea Fusion, Inc., priority 2021, published 2024)
# pIC50: −log10 of the molar value.
# Tests used:
# MV-4-11 = assay: Proliferation inhibition, CellTiter-Glo, MV-4-11; format: cell-based, human; details: Homo sapiens, MV4-11, 96 h; MV-4:11 cells, IC50 (4 days), CellTiter-Glo; read-out: MV-4:11 IC50
# Outline: (§1)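 About 10,000 cells per well in RPMI-1640 with 10% FBS. Compounds added 2 h after seeding at eight concentrations in duplicate (0.2% DMSO as 100% proliferation), then incubated ~96 h at 37° C, 5% CO2. ATP measured by CellTiter-Glo luminescence; IC50 from four-parameter logistic fit.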
# WT FLT3 = target: T1, WT FLT3 (Homo sapiens, UniProt P36888); assay: WT FLT3 Lance Ultra TR-FRET kinase assay; format: biochemical
# T1 construct: purchased Invitrogen PR4666C
# T1 sequence (P36888 564-993 limits assumed): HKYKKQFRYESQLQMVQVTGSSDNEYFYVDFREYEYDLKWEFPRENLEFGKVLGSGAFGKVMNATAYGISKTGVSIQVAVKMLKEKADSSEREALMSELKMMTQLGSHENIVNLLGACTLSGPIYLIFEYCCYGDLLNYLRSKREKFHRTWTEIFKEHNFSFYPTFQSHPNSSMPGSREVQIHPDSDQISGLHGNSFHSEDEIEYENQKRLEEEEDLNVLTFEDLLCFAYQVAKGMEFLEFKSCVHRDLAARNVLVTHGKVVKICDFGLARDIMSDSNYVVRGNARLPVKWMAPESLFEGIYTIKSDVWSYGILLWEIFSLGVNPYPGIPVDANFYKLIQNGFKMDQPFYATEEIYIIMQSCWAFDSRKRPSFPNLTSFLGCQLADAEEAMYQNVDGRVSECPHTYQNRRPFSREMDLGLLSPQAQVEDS
# Text: (§2) High throughput 384-well Lance Ultra TR-FRET based kinase assays were established for the WT FLT3 and FLT3-ITD enzymes and employed a ULight-labeled peptide […] and FLT3 proteins labelled with Eu-conjugated antibody […] (WuXi Aptec). The principle of TR-FRET is based on transfer of energy between a donor and acceptor fluorophore that results when the fluorophores are within close proximity (˜100 Å) of each other. Recombinant WT FLT3 (#PR4666C, M.W. 48.6 kDa) was purchased from Invitrogen and FLT3-ITD (FLT3-ITD-W51, #F-12-12CG-10, M.W. 76 kDa) was purchased from Signalchem. Optimal assay conditions for the WT FLT3 enzyme assay were as follows: 0.5 nM FLT3 protein, 50 nM ULight-JAK-1 (Tyr1023) substrate peptide (PerkinElmer #TRF0121), 100 μM ATP, 60 min reaction time. Optimal assay conditions for the FLT3-ITD enzyme assay were as follows: 0.0625 nM FLT3-ITD protein, 50 nM ULight-JAK-1 (Tyr1023) substrate peptide, 50 μM ATP, 90 min reaction time. Briefly, 11 dose 3× serial dilutions were prepared for the test compounds and the reference compound and 100 nanoliters transferred to appropriate wells of 384-well assay plates. Five microliters of 2× enzyme/peptide were added into assay wells, assay plates centrifuged at 1000 rpm for about 30 seconds, sealed with sealing film and incubated for 30 min at 23° C. Assay buffer comprised 50 mM HEPES (pH 7.5), 1 mM EDTA, 0.01% Brij-35, 10 mM MgCl2 and 2 mM DTT. Next 5 μl of a 2× ATP mixture were added into the assay wells and the plates centrifuged at 1000 rpm about 30 seconds, sealed with sealing film and incubated for 23° C. for appropriate duration. Following assay incubation (30 min for WT FLT3 and 60 min for FLT3-ITD) 10 μl 2× Detection Mixture (Eu-W1024 Anti-phosphotyrosine (PT66) 2 nM and EDTA 10 mM) was added to assay wells, assay plates centrifuge at 1000 rpm about 1 minutes, sealed with sealing film and incubated at 23° C. for 60 minutes. Assay plates were read on a Perkin Elmer Envision reader at two wavelengths (665/615) and the ratio of […] calculated.
# (§3) Data was expressed as % of inhibition relative to the vehicle control and calculated as follows:
# (§4) Results were analyzed by XLFIT5 as % inhibition vs. log [compound concentration] and IC50 values were calculated by non-linear regression using four parameter-logistic equation. Fit=(A+((B−A)/(1+((C/x)^D)))). Res=(y−fit).
# MOLM-13 = assay: Proliferation inhibition, CellTiter-Glo, MOLM-13; format: cell-based, human; details: Homo sapiens, 96 h; MOLM-13 cells, IC50 (4 days), CellTiter-Glo; read-out: MOLM-13 IC50
# Outline: as §1
# K-562 = assay: Proliferation inhibition, CellTiter-Glo, K-562; format: cell-based, human; details: Homo sapiens, K562, 96 h; K-562 cells, IC50 (4 days), CellTiter-Glo; read-out: K-562 IC50
# Outline: as §1
# FLT3-ITD = target: T2, FLT3-ITD (Homo sapiens, UniProt P36888, DUP595-601); assay: FLT3-ITD Lance Ultra TR-FRET kinase assay; format: biochemical
# T2 construct: purchased Signalchem F-12-12CG-10
# T2 sequence (P36888 with tags, fused parts or gaps DUP595-601 limits assumed): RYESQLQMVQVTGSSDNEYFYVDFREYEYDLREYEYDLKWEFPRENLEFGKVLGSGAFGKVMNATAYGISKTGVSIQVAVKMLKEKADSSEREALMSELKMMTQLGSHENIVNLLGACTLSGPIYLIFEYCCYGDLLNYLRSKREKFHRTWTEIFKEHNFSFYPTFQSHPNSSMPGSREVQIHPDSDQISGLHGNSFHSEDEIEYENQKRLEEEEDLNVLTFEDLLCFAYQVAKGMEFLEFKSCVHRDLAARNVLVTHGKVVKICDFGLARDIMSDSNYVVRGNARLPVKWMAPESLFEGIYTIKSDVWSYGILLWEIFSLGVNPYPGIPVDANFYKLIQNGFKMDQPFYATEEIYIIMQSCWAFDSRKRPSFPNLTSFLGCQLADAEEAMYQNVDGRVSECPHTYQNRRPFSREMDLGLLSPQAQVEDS
# Text: as §2, §3, §4
Structure (SMILES),pIC50 (MV-4-11),pIC50 (WT FLT3),pIC50 (MOLM-13),pIC50 (K-562),pIC50 (FLT3-ITD)
"C=CC(=O)N(C)CC(=O)NCCc1cccc(Nc2nc(N(C)CC)c(CC)nc2C(N)=O)c1 [Compound 511, 6-ethyl-5-(ethyl(methyl)amino)-3-((3-(2-(2-(N-methylacrylamido)acetamido)ethyl)phenyl)amino) pyrazine-2-carboxamide]",8.00 to 9.00,9.30 to 9.70,> 9.00,< 6.30,≥ 10.00
"CCc1nc(C(N)=O)c(Nc2cccc([C@@H](C)CNC(=O)CN(C)C(=O)/C=C/CN(C)C)c2)nc1C [Compound 321, (R,E)-3-((3-(1-(2-(4-(dimethylamino)-N-methylbut-2-enamido)acetamido)propan-2-yl)phenyl)amino)-6-ethyl-5-methylpyrazine-2-carboxamide]",8.00 to 9.00,9.00 to 9.30,8.00 to 9.00,< 6.30,< 9.00
"CCc1nc(C(N)=O)c(Nc2cccc(CCNC(=O)[C@H](C)N(C)C(=O)/C=C/CN(C)C)c2)nc1N(C)C [Compound 137, (S,E)-5-(dimethylamino)-3-((3-(2-(2-(4-(dimethylamino)-N-methylbut-2-enamido)propanamido)ethyl)phenyl)amino)-6-ethylpyrazine-2-carboxamide]",> 9.00,9.00 to 9.30,> 9.00,< 6.30,9.30 to 9.70
"C=CC(=O)N(C)CC(=O)NCCc1cccc(Nc2nc(CC(C)C)c(CC)nc2C(N)=O)c1 [Compound 510, 6-ethyl-5-isobutyl-3-((3-(2-(2-(N-methylacrylamido)acetamido)ethyl)phenyl)amino) pyrazine-2-carboxamide]",7.00 to 8.00,< 9.00,7.00 to 8.00,< 6.30,< 9.00
"Cc1nc(C(N)=O)c(Nc2cc(F)cc(CCNC(=O)[C@H](C)N(C)C(=O)/C=C/CN(C)C)c2)nc1C1CC1 [Compound 254, (S,E)-5-cyclopropyl-3-((3-(2-(2-(4-(dimethylamino)-N-methylbut-2-enamido)propanamido)ethyl)-5-fluorophenyl)amino)-6-methylpyrazine-2-carboxamide]",> 9.00,9.00 to 9.30,8.00 to 9.00,< 6.30,9.00 to 9.30
"CCc1nc(C(N)=O)c(Nc2cccc([C@@H](C)CNC(=O)CN(C)C(=O)/C=C/CN3CCC3)c2)nc1C(C)C [Compound 509, (R,E)-3-((3-(1-(2-(4-(azetidin-1-yl)-N-methylbut-2-enamido)acetamido)propan-2-yl)phenyl)amino)-6-ethyl-5-isopropylpyrazine-2-carboxamide]",8.00 to 9.00,9.30 to 9.70,> 9.00,< 6.30,9.00 to 9.30
"CCc1nc(C(N)=O)c(Nc2cccc(CCNC(=O)[C@H](C)N(C)C(=O)C#CCN(C)C)c2)nc1N(C)C [Compound 203, (S)-5-(dimethylamino)-3-((3-(2-(2-(4-(dimethylamino)-N-methylbut-2-ynamido)propanamido)ethyl)phenyl)amino)-6-ethylpyrazine-2-carboxamide]",> 9.00,9.00 to 9.30,8.00 to 9.00,< 6.30,9.30 to 9.70
"Cc1nc(C(N)=O)c(Nc2cccc(CCNC(=O)[C@H](C)N(C)C(=O)/C=C/CN(C)C)c2)nc1C(C)C [Compound 305, (S,E)-3-((3-(2-(2-(4-(dimethylamino)-N-methylbut-2-enamido)propanamido)ethyl)phenyl)amino)-5-isopropyl-6-methylpyrazine-2-carboxamide]",8.00 to 9.00,< 9.00,8.00 to 9.00,< 6.30,< 9.00
"CCc1nc(C(N)=O)c(Nc2cncc(CCNC(=O)[C@H](C)N(C)C(=O)/C=C/CN(C)C)c2)nc1C1CC1 [Compound 306, (S, E)-5-cyclopropyl-3-((5-(2-(2-(4-(dimethylamino)-N-methylbut-2-enamido)propanamido)ethyl)pyridin-3-yl)amino)-6-ethylpyrazine-2-carboxamide]",8.00 to 9.00,9.00 to 9.30,8.00 to 9.00,,< 9.00
"C=CC(=O)N(C)[C@@H](C)C(=O)NCCc1cccc(Nc2nc(C)c(CC)nc2C(N)=O)c1 [Compound 216, 6-ethyl-5-methyl-3-[3-[2-[[(2S)-2-[methyl(prop-2-enoyl)amino]propanoyl]amino]ethyl]anilino]pyrazine-2-carboxamide]",7.00 to 8.00,,7.00 to 8.00,< 6.30,
"CC#CC(=O)N(C)[C@@H](C)C(=O)NCCc1cccc(Nc2nc(C3CC3)c(CC)nc2C(N)=O)c1 [Compound 209, 3-[3-[2-[[(2S)-2-[but-2-ynoyl(methyl)amino]propanoyl]amino]ethyl]anilino]-5-cyclopropyl-6-ethyl-pyrazine-2-carboxamide]",8.00 to 9.00,,7.00 to 8.00,< 6.30,
"C=CC(=O)N(C)[C@H](C)C(=O)NCCc1cccc(Nc2nc(C3CC3)c(CC)nc2C(N)=O)c1 [Compound 236, 5-cyclopropyl-6-ethyl-3-[3-[2-[[(2R)-2-[methyl(prop-2-enoyl)amino]propanoyl]amino]ethyl]anilino]pyrazine-2-carboxamide]",7.00 to 8.00,,7.00 to 8.00,< 6.30,
"CCc1nc(C(N)=O)c(Nc2cccc(CCNC(=O)C3(N(C)C(=O)/C=C/CN(C)C)CC3)c2)nc1C1CC1 [Compound 220, 5-cyclopropyl-3-[3-[2-[[1-[[(E)-4-(dimethylamino)but-2-enoyl]-methyl-amino]cyclopropanecarbonyl]amino]ethyl]anilino]-6-ethyl-pyrazine-2-carboxamide]",8.00 to 9.00,,7.00 to 8.00,< 6.30,
"Cc1nc(Nc2cccc(CCNC(=O)CN(C)C(=O)/C=C/CN(C)C)c2)c(C(N)=O)nc1C [Compound 301, 3-[3-[2-[[2-[[(E)-4-(dimethylamino)but-2-enoyl]-methyl-amino]acetyl]amino]ethyl]anilino]-5,6-dimethyl-pyrazine-2-carboxamide]",7.00 to 8.00,,7.00 to 8.00,< 6.30,
"Cc1nc(Nc2cc(F)cc(CCNC(=O)CN(C)C(=O)/C=C/CN(C)C)c2)c(C(N)=O)nc1C [Compound 251, 3-[3-[2-[[2-[[(E)-4-(dimethylamino)but-2-enoyl]-methyl-amino]acetyl]amino]ethyl]-5-fluoro-anilino]-5,6-dimethyl-pyrazine-2-carboxamide]",8.00 to 9.00,,7.00 to 8.00,< 6.30,
